IC50 data for 33 compounds are collected here from patent publication US11370774B2, “Substituted benzofuran, benzopyrrole, benzothiophene, and structurally related complement inhibitors” (BioCryst Pharmaceuticals, Inc., priority 2018, dated 2022).

One may read the IC50 as the concentration that inhibits the measured activity by half.

Chain of Factor D (P00746 26-253): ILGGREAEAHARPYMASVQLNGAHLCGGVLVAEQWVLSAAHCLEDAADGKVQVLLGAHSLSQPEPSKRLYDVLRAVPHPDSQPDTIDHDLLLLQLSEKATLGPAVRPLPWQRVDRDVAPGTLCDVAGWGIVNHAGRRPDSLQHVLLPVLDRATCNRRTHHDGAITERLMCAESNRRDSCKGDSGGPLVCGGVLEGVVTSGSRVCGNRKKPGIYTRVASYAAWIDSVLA

This assay has as its target Factor D (Homo sapiens (Human), UniProt P00746). Nature of the assay: Factor D esterolytic assay (Z-Lys-SBzl substrate, DTNB, 405 nm). In kind it is biochemical. Conditions: Z-Lys-SBzl 1.29 mM, pH 7.5, 10% DMSO, tested a minimum of three times, read-out: Measured Ki (IC50) Value for Compounds: IC50. An outline of the steps: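 Human Factor D ([…]) with 1.29 mM Z-Lys-SBzl in 100 mM HEPES, 500 mM NaCl, pH 7.5, 10% DMSO; substrate added immediately or after room-temperature preincubation. Released thiol reacted with DTNB, rate followed at 405 nm for 600 sec, 690 nm background subtracted. IC50 from percent inhibition versus uninhibited rate, n≥3.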
Consider `Cc1cccc(CC(=O)O)c1OCc1cc(-c2cccc(CN)c2)c2occc2c1` [Compound 274g, 2-(2-((7-(3-(aminomethyl)phenyl)benzofuran-5-yl)methoxy)-3-methylphenyl)acetic acid], for which the concentration for half-maximal inhibition (IC50) is < 1000 nM.

For the compound `NCc1ccc(-c2cc(CC(=O)N3[C@@H]4C[C@@H]4C[C@H]3C(=O)NCc3cccc(Cl)c3F)cc3ccoc23)cc1` [Compound 275e, (1R,3S,5R)-2-(2-(7-(4-(aminomethyl)phenyl)benzofuran-5-yl)acetyl)-N-(3-chloro-2-fluorobenzyl)-2-azabicyclo[3.1.0]hexane-3-carboxamide], the IC50 was 1000 to 10000 nM.

In the case of `Cc1cc(CC(=O)O)c(OCc2cc(-c3cccc(CN)c3)c3occc3c2)cc1C` [Compound 276f, 2-(2-((7-(3-(aminomethyl)phenyl)benzofuran-5-yl)methoxy)-4,5-dimethylphenyl)acetic acid], the IC50 was < 1000 nM.

With `NCc1cccc(-c2cc(CC(=O)N3CCC[C@H]3C(=O)NCc3cccc(Cl)c3F)cc3ccoc23)c1` [Compound 277e, (S)-1-(2-(7-(3-(aminomethyl)phenyl)benzofuran-5-yl)acetyl)-N-(3-chloro-2-fluorobenzyl)pyrrolidine-2-carboxamide], the IC50 is < 1000 nM.

Take `COc1cncc(NCc2cc3cc(COc4ccccc4CC(=O)O)cc(-c4cccc(CN)c4)c3o2)c1` [Compound 279c, 2-(2-((7-(3-(aminomethyl)phenyl)-2-(((5-methoxypyridin-3-yl)amino)methyl)benzofuran-5-yl)methoxy)phenyl)acetic acid]: the IC50 was < 1000 nM.

For `COc1ccc(NCc2cc3cc(COc4ccccc4CC(=O)O)cc(-c4cccc(CN)c4)c3o2)cc1` [Compound 280c, 2-(2-((7-(3-(aminomethyl)phenyl)-2-(((4-methoxyphenyl)amino)methyl)benzofuran-5-yl)methoxy)phenyl)acetic acid], the IC50 was < 1000 nM.

With `NCc1cccc(-c2cc(COc3ccccc3CC(=O)O)cc3cc(CNCc4cccnc4)oc23)c1` [Compound 281c, 2-(2-((7-(3-(aminomethyl)phenyl)-2-(((pyridin-3-ylmethyl)amino)methyl)benzofuran-5-yl)methoxy)phenyl)acetic acid], the IC50 is < 1000 nM.

For `NCc1cccc(-c2cc(COc3cccc(C(F)(F)F)c3CC(=O)O)cc3ccoc23)c1` [Compound 282f, 2-(2-((7-(3-(aminomethyl)phenyl)benzofuran-5-yl)methoxy)-6-(trifluoromethyl)phenyl)acetic acid], the IC50 was < 1000 nM.

`NCc1cccc(-c2cc(COc3ccccc3CC(=O)O)cc3cc(CNCc4ccccc4)oc23)c1` [Compound 283c, 2-(2-((7-(3-(aminomethyl)phenyl)-2-((benzylamino)methyl)benzofuran-5-yl)methoxy)phenyl)acetic acid]: the IC50 was < 1000 nM.

Turning to `NCc1cccc(-c2cc(COc3ccccc3CC(=O)O)cc3cc(COCc4ccccc4)oc23)c1` [Compound 284f, 2-(2-((7-(3-(aminomethyl)phenyl)-2-((benzyloxy)methyl)benzofuran-5-yl)methoxy)phenyl)acetic acid], the IC50 is < 1000 nM.

Consider `NCc1cccc(-c2cc(COc3ccccc3CC(=O)O)cc3cccnc23)c1` [Compound 285e, 2-(2-((8-(3-(aminomethyl)phenyl)quinolin-6-yl)methoxy)phenyl)acetic acid], for which the IC50 is < 1000 nM.

For the compound `Cc1cc(CC(=O)O)c(OCc2cc(-c3cccc(CN)c3)c3occc3c2)c2c1CCC2` [Compound 286g, 2-(4-((7-(3-(aminomethyl)phenyl)benzofuran-5-yl)methoxy)-7-methyl-2,3-dihydro-1H-inden-5-yl)acetic acid], the IC50 was < 1000 nM.

Consider `CN(Cc1ccccc1)Cc1cc2cc(COc3ccccc3CC(=O)O)cc(-c3cccc(CN)c3)c2o1` [Compound 287c, 2-(2-((7-(3-(aminomethyl)phenyl)-2-((benzyl(methyl)amino)methyl)benzofuran-5-yl)methoxy)phenyl)acetic acid], for which the IC50 is < 1000 nM.

Take `NCc1cccc(-c2cc(COc3cc(C(F)(F)F)ccc3CC(=O)O)cc3ccoc23)c1` [Compound 288f, 2-(2-((7-(3-(aminomethyl)phenyl)benzofuran-5-yl)methoxy)-4-(trifluoromethyl)phenyl)acetic acid]: the IC50 was < 1000 nM.

In the case of `CNC(=O)c1cc2cc(COc3ccccc3CC(=O)O)cc(-c3cccc(CN)c3)c2o1` [Compound 289d, 2-(2-((7-(3-(aminomethyl)phenyl)-2-(methylcarbamoyl)benzofuran-5-yl)methoxy)phenyl)acetic acid], the IC50 is < 1000 nM.

Consider `NCc1cccc(-c2cc(COc3ccccc3CC(=O)O)cc3cc(C(=O)NCc4ccccc4)oc23)c1` [Compound 290c, 2-(2-((7-(3-(aminomethyl)phenyl)-2-(benzylcarbamoyl)benzofuran-5-yl)methoxy)phenyl)acetic acid], for which the IC50 is < 1000 nM.

On to `NCc1cccc(-c2cc(COc3c(CC(=O)O)ccc4occc34)cc3ccoc23)c1` [Compound 291g, 2-(4-((7-(3-(aminomethyl)phenyl)benzofuran-5-yl)methoxy)benzofuran-5-yl)acetic acid], for which the 50% inhibitory concentration (IC50) was < 1000 nM.

Consider `Cc1ccc(CC(=O)O)c(OCc2cc(-c3cccc(CN)c3)c3occc3c2)c1C` [Compound 292f, 2-(2-((7-(3-(aminomethyl)phenyl)benzofuran-5-yl)methoxy)-3,4-dimethylphenyl)acetic acid], for which the IC50 was < 1000 nM.

Consider `NCc1cccc(-c2cc(COc3ccccc3C(=O)O)cc3ccoc23)c1` [Compound 293c, 2-((7-(3-(aminomethyl)phenyl)benzofuran-5-yl)methoxy)benzoic acid], for which the IC50 is < 1000 nM.

As to `NCc1cccc(-c2cc(COc3ccccc3CC(=O)O)cc3cc(CNC(=O)c4ccccc4)oc23)c1` [Compound 294f, 2-(2-((7-(3-(aminomethyl)phenyl)-2-(benzamidomethyl)benzofuran-5-yl)methoxy)phenyl)acetic acid], the concentration for half-maximal inhibition (IC50) was < 1000 nM.

For the compound `N#Cc1cccc(C(=O)NCc2cc3cc(COc4ccccc4CC(=O)O)cc(-c4cccc(CN)c4)c3o2)c1` [Compound 295c, 2-(2-((7-(3-(aminomethyl)phenyl)-2-((3-cyanobenzamido)methyl)benzofuran-5-yl)methoxy)phenyl)acetic acid], the IC50 was < 1000 nM.

`NCc1cccc(-c2cc(COc3ccccc3CC(=O)O)cc3cc(CNC(=O)Cc4ccccc4)oc23)c1` [Compound 296c, 2-(2-((7-(3-(aminomethyl)phenyl)-2-((2-phenylacetamido)methyl)benzofuran-5-yl)methoxy)phenyl)acetic acid]: the IC50 is < 1000 nM.

Turning to `NCc1cccc(-c2cc(COc3ccccc3CC(=O)O)cc3cc(CNC(=O)c4ccc(F)cc4F)oc23)c1` [Compound 297c, 2-(2-((7-(3-(aminomethyl)phenyl)-2-((2,4-difluorobenzamido)methyl)benzofuran-5-yl)methoxy)phenyl)acetic acid], the IC50 was < 1000 nM.

Take `NCc1cccc(-c2cc(COc3cc4occc4cc3CC(=O)O)cc3ccoc23)c1` [Compound 298f, 2-(6-((7-(3-(aminomethyl)phenyl)benzofuran-5-yl)methoxy)benzofuran-5-yl)acetic acid]: the IC50 was < 1000 nM.

As for `Cc1ccc(CC(=O)O)c(OCc2cc(-c3cccc(CN)c3)c3oc(F)cc3c2)c1` [Compound 299c, 2-(2-((7-(3-(aminomethyl)phenyl)-2-fluorobenzofuran-5-yl)methoxy)-4-methylphenyl)acetic acid], the IC50 is < 1000 nM.

Take `NCc1nccc(-c2cc(COc3ccccc3CC(=O)O)cc3cc(F)oc23)c1F` [Compound 300c, 2-(2-((7-(2-(aminomethyl)-3-fluoropyridin-4-yl)-2-fluorobenzofuran-5-yl)methoxy)phenyl)acetic acid]: the IC50 was < 1000 nM.

For the compound `NCc1cc(-c2cc(COc3ccccc3CC(=O)O)cc3cc(F)oc23)ccn1` [Compound 301b, 2-(2-((7-(2-(aminomethyl)pyridin-4-yl)-2-fluorobenzofuran-5-yl)methoxy)phenyl)acetic acid], the IC50 was < 1000 nM.

With `NCc1cccc(-c2cc(COc3ccccc3CC(=O)O)cc3cc(COCc4cccnc4)oc23)c1` [Compound 302f, 2-(2-((7-(3-(aminomethyl)phenyl)-2-((pyridin-3-ylmethoxy)methyl)benzofuran-5-yl)methoxy)phenyl)acetic acid], the IC50 is < 1000 nM.

`COc1ccc(CC(=O)O)c(OCc2cc(-c3cccc(CN)c3)c3occc3c2)c1` [Compound 303g, 2-(2-((7-(3-(aminomethyl)phenyl)benzofuran-5-yl)methoxy)-4-methoxyphenyl)acetic acid]: the half-maximal inhibitory concentration (IC50) is < 1000 nM.

For the compound `Cc1ccc(CC(=O)O)c(OCc2cc(-c3cccc(CN)c3F)c3occc3c2)c1C` [Compound 304b, 2-(2-((7-(3-(aminomethyl)-2-fluorophenyl)benzofuran-5-yl)methoxy)-3,4-dimethylphenyl)acetic acid], the IC50 is < 1000 nM.

As for `Cc1ccc(CC(=O)O)c(OCc2cc(-c3ccnc(CN)c3F)c3occc3c2)c1C` [Compound 305d, 2-(2-((7-(2-(aminomethyl)-3-fluoropyridin-4-yl)benzofuran-5-yl)methoxy)-3,4-dimethylphenyl)acetic acid], the IC50 is < 1000 nM.

As to `CCN(CC)c1ccc(CC(=O)O)c(OCc2cc(-c3cccc(CN)c3)c3occc3c2)c1` [Compound 306f, 2-(2-((7-(3-(aminomethyl)phenyl)benzofuran-5-yl)methoxy)-4-(diethylamino)phenyl)acetic acid], the IC50 is < 1000 nM.

Turning to `CC(C)c1ccc(CC(=O)O)c(OCc2cc(-c3cccc(CN)c3F)c3occc3c2)c1` [Compound 307f, 2-(2-((7-(3-(aminomethyl)-2-fluorophenyl)benzofuran-5-yl)methoxy)-4-isopropylphenyl)acetic acid], the IC50 is < 1000 nM.
